Results on one compound are retold here after patent US20240156757A1, “CXCL8 INHIBITOR AND PHARMACEUTICAL COMPOSITION THEREOF FOR USE IN THE TREATMENT OF SEIZURES” (DOMPE' FARMACEUTICI SPA, priority 2021, published 2024).

Test [1] has as its system murine model of acquired epilepsy triggered by de novo status epilepticus. As to the kind of experiment: Effect of reparixin on onset and development of epilepsy (intra-amygdala kainic acid status epilepticus, EEG recording). The format is in vivo, C57BL6/N male mice. The procedure: A murine model of acquired epilepsy triggered by de novo status epilepticus was used in the experiments (lori et al, Neurobiol Dis 2017, 99 12-23).
In details, eight week-old C57BL6/N male mice (˜25 g; Charles River, calco, Italy) were used. Mice were maintained in SPF facilities and housed at a constant room temperature (23° c) and relative humidity (60±5%) with free access to food and water and a fixed 12 h light/dark cycle. All experimental procedures were conducted in conformity with institutional guidelines that are in compliance with national (D.L. n.26, G.U. Mar. 4, 2014) and international laws and policies (EEC council directive 86/609, OJ L 358, 1, Dec. 12, 1987, guide for the care and use of laboratory animals, U.S. national research council, 1996), and were reviewed and approved by the intramural ethical committee.
Mice were surgically implanted under general gas anaesthesia (1-3% isoflurane in O2) and stereotaxic guidance. A 23-gauge guide cannula was unilaterally positioned on top of the dura mater for the intra-amygdala injection of kainic acid (KA) (from bregma, mm: nose bar 0; anteroposterior, −0.9; lateral, −3.1) in accordance with lori et al. (2017).
For seizure recording, a nichrome-insulated bipolar depth electrode (60 μm OD) was implanted in the dorsal hippocampus (from bregma, mm: nose bar 0; anteroposterior—1.8, lateral 1.4 and 1.8 below dura mater) contralateral to the injected amygdala and a cortical electrode was placed onto the somatosensory cortex in the ipsilateral hemisphere. Finally, two screw electrodes were positioned over the nasal sinus and the cerebellum, and used as ground and reference electrodes, respectively. Electrodes were connected to a multipin socket and secured to the skull by acrylic dental cement.
Minipumps (Alzet pump 1007D, 100 μ/minipump or Alzet pump 2002, 200 μ/minipump; Charles River, Calco, Italy) filled with reparixin dissolved in a vehicle consisting in sterile saline (NaCl 0.9%) solution (vehicle) (reparixin group) or vehicle (sham control group and vehicle group) were implanted subcutaneously in the back of the mice. Briefly, a small incision was made in the skin between the scapulae and a pocket was formed by spreading apart the connective tissues. After minipump positioning, the skin was carefully sutured to avoid any discomfort to the animal.
One week after surgery, mice were connected to the EEG set up (TWIN EEG recording system connected with a comet AS-40 32/8 amplifier:sampling rate 400 hz, high-pass filter 0.3 hz, low-pass filter 70 hz, sensitivity 2000 my/cm; Grass-telefactor, West Warwick, USA) in order to record an EEG baseline before the induction of status epilepticus (SE). […]
Reparixin, at the dose of 7.5 mg/h/kg (reparixin group), or vehicle (sham and vehicle group) were administered by continuous infusion using osmotic minipumps as described in example 1b).
After 24 hours from infusion, status epilepticus was induced in the vehicle group and reparixin group by amygdal injection of kaininc acid.
In details, kainic acid (KA, 0.3 μg in 0.2 μl; Sigma-Aldrich, S. Louis, USA) was dissolved in […] phosphate-buffered saline (PBS, pH 7.4) and injected into the right basolateral amygdala in freely moving mice using a needle protruding 4.1 mm below the implanted cannula in order to evoke SE. SE was defined by the appearance of continuous spike activity with a frequency>1 Hz intermixed with high amplitude and frequency discharges lasting for at least 5 s, with a frequency of >8 Hz. […]

Test [2] deals with acetylated alpha-tubulin. As to the kind of experiment: Acetylated alpha-tubulin immunostaining in hippocampus after SE. Particulars: as assessed 48 h and 72 h after SE; 7.5 mg/h/kg minipump; reparixin n=7, vehicle n=4. Type of test: in vivo, C57BL6/N male mice. The procedure: (§1) A cohort of animals was prepared in accordance to Example 1 to study the effects of reparixin on the acetylated alpha-tubulin, a pharmacodynamic marker of drug's neuroprotective effect, and on degenerating neurons, as identified by Fluoro-Jade staining.
(§2) vehicle group (n=6) and reparixin group (n=7). Sham mice (implanted with electrodes but not exposed to SE) were used as controls (n=6).
(§3) The animals of the different groups were treated as described in Example 2.
[…] Brains were post-fixed for 90 min in 4% PFA in PBS at 4° C., then transferred to 20% sucrose in PBS overnight at 4° C. and then frozen in n-pentane for 3 min at −43° C. and stored at −80° C. until assay. Serial coronal sections (40 μm) were cut on a cryostat throughout the extension of the hippocampus (from bregma −1.22 to −2.54 mm).
(§4) Sections were processed to measure both degenerating neurons with Fluoro-Jade and acetylated alpha-tubulin (marker of microtubule stability) as described below. Three slices for each animal's brain in each experimental group/marker were matched for anteroposterior level and processed.
Slices were blocked for 30 min at 4° C. in blocking buffer (0.1% Triton-X100, 3% BSA in PBS; Invitrogen) then incubated with primary antibody against acetylated alpha-tubuline 1:2000 (#24610 Abcam) overnight at 4 C. […]

Test [3] has as its system Fluoro-Jade-positive degenerating neurons. As to the kind of experiment: Fluoro-Jade staining of degenerating neurons in hippocampus after SE. Type of test: in vivo, C57BL6/N male mice. Particulars: 72 h post-SE. Here is the method:
as §1, §2, §3
All mice were transcardially perfused 72 h post-SE with ice-cold phosphate buffered saline (PBS, pH 7.4), followed by 4% paraformaldehyde (PFA) in PBS. Brains were post-fixed for 90 min in 4% PFA in PBS at 4° C., then transferred to 20% sucrose in PBS overnight at 4° C. and then frozen in n-pentane for 3 min at −43° C. and stored at −80° C. until assay. Serial coronal sections (40 μm) were cut on a cryostat throughout the extension of the hippocampus (from bregma −1.22 to −2.54 mm).
as §4
Labeling was carried out as previously described (Ravizza et al., 2008). Briefly, sections were dried in ethanol (100%, 75% and 50%) and rehydrated in distilled water. […]

The test system of test [4] is chronic epileptic mice with established spontaneous seizures. As to the kind of experiment: Effect of reparixin on established seizures in chronic epileptic mice. The format is in vivo. Here is the method: The objective of this experiment was to assess whether reparixin affects seizure frequency or duration in chronic epileptic mice with established spontaneous seizures. Status epilepticus was induced in 18 mice prepared as described in Example 1a) by amygdala injection of kainic acid and EEG was recorded for 14 days to determine disease onset as described in Example 2. Then, mice were disconnected from EEG and returned to their home cages until day 45 at which time they were again EEG recorded for 14 days to determine their individual baseline of spontaneous seizures. At the end of this period, mice were temporarly disconnected for minipumps implantation. Minipumps (ALZET model 2002; 0.5 μl/h) were filled with Reparixin (7.5/mg/h/kg, n=9) or its vehicle (n=9) according to the manifacturer's instructions and implanted subcutaneously in the back of the mice under general gas anaesthesia (1-3% isoflurane in O2). Upon awakening from anesthesia, mice were returned to their home cages for monitoring the EEG for additional 14 days during treatment. At the end of treatment period (as determined by minipump exhaustion) venous blood was collected from the cheek and plasma was isolated for drug level measurement. Mice were subsequently monitored during a drug wash-out period of 14 days. A group of sham mice (not exposed to SE but handled as experimental mice) were implanted with minipumps filled with vehicle (n=6).

As to `CC(C)Cc1ccc([C@@H](C)C(=O)NS(C)(=O)=O)cc1` [reparixin, R-(-)-2-(4-isobutylphenyl)propionyl methansulfonamide], the “onset time of SE” value in test [1] (7.5 mg/h/kg continuous s.c. minipump infusion started 24 h before kainic acid, vs vehicle group, n=24/group) is reported as “did not modify”. For the same compound, the “onset of spontaneous seizures (epilepsy onset, Kaplan-Meyer curve)” value in test [1] (7.5 mg/h/kg minipump for 7 days post-SE, p<0.05 Log-rank test vs vehicle) is listed as “significant delay”. Further, the “incidence of acute symptomatic seizures during 48 h post-SE” value in test [1] (7.5 mg/h/kg minipump, all animals exposed to SE, p<0.05 by Fisher's test vs vehicle (62% of mice)) is listed as 20 % of mice. Further, in test [1] (48 h-7 d post-SE, vs vehicle group, p<0.05 Mann-Whitney test), the “number of spontaneous recurrent seizures (SRS) during drug treatment” value is on record as “significant reduction”. Besides, the “mice that died during epilepsy development” value in test [1] (reparixin group n=9, vehicle group 3 out of 12 died because of severe seizures) is 1 out of 9. Besides, in test [2], the “immunohistochemical signal of acetylated alpha-tubulin in the mouse hippocampus” value is “significantly reduced”. The “mice without Fluoro-Jade positive neurons in CA4” value in test [3] (vehicle 1 out of 5 without neurodegeneration, p=0.29 by Fisher test) is recorded as 4 out of 7. The “mice without Fluoro-Jade positive neurons in CA1 pyramidal cell layer” value in test [3] (vehicle 5 out of 5 showed neurodegeneration, p<0.05 by Fisher test) is on record as 5 out of 7. In addition, the “average SRS duration” value in test [4] (7.5 mg/h/kg s.c. minipump for 14 days, n=9) is listed as “not modified”. The “reduction of the number of spontaneous seizures compared to pre-injection baseline” value in test [4] (7.5 mg/h/kg s.c. minipump for 14 days, n=9, p<0.05 one-way ANOVA, Tukey's test) is on record as “about 50%”. Also, the “responders (at least 30% seizure reduction during treatment vs pre-treatment baseline)” value in test [4] (7.5 mg/h/kg s.c. minipump for 14 days, waterfall plot) is 7 out of 9. Also, the “number of seizures upon drug discontinuation” value in test [4] (drug wash-out period of 14 days) is “returned to pre-injection baseline level”.
